In the supplement of paper PMC10307832:

How the values were obtained:
Experiment in all cases: relative viability (nuclei count vs DMSO), 5 days (fraction); higher = more cells survive
[1] = compound: Nc1nc2[nH]cc(CCc3ccc(C(=O)N[C@@H](CCC(=O)O)C(=O)O)cc3)c2c(=O)[nH]1 [Pemetrexed] + COc1cccc2cc(-c3nc([C@H]4CC[C@H](C(=O)O)CC4)n4ncnc(N)c34)[nH]c12 [OSI-027] (partner 0.5 µM)
How it was run: (§1)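 A single step with final 0.05% Triton X-100, 1% formaldehyde and 1 ug/ml Hoechst fixed the cells and stained nuclei 5 days after treatment. Lung cancer cell lines in 1536-well plates had been treated by pin tool the day after seeding with one drug alone or a fixed anchor-drug dose plus five library-drug doses (not always all listed) in √10 steps, and nuclei were counted on 4× images. Relative viability is the ratio of nuclei in treated wells to nuclei in vehicle wells, taken as the median of duplicate plates.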

[2] = compound: CC[C@H](Nc1ncnc2[nH]cnc12)c1nc2cccc(F)c2c(=O)n1-c1ccccc1 [Idelalisib] + Cc1nc(Nc2ncc(C(=O)Nc3c(C)cccc3Cl)s2)cc(N2CCN(CCO)CC2)n1 [Dasatinib] (partner 0.075 µM)
How it was run: as §1

[3] = compound: CC[C@H](Nc1ncnc2[nH]cnc12)c1nc2cccc(F)c2c(=O)n1-c1ccccc1 [Idelalisib] + N=C(N)NC(=N)NCCc1ccccc1 [Phenformin] (partner 250 µM)
How it was run: as §1

[4] = compound: Nc1nc2[nH]cc(CCc3ccc(C(=O)N[C@@H](CCC(=O)O)C(=O)O)cc3)c2c(=O)[nH]1 [Pemetrexed] + NC(=O)Nc1cc(-c2cccc(F)c2)sc1C(=O)N[C@H]1CCCNC1 [AZD7762] (partner 0.2 µM)
How it was run: as §1

Row | Cell Line | relative viability ([1]; first compound 0.002 µM) | relative viability ([1]; first compound 0.006325 µM) | relative viability ([1]; first compound 0.02 µM) | relative viability ([1]; first compound 0.06325 µM) | relative viability ([1]; first compound 0.2 µM) | relative viability ([2]; first compound 0.04 µM) | relative viability ([2]; first compound 0.1265 µM) | relative viability ([2]; first compound 0.4 µM) | relative viability ([2]; first compound 1.265 µM) | relative viability ([2]; first compound 4 µM) | relative viability ([3]; first compound 0.04 µM) | relative viability ([3]; first compound 0.1265 µM) | relative viability ([3]; first compound 0.4 µM) | relative viability ([3]; first compound 1.265 µM) | relative viability ([3]; first compound 4 µM) | relative viability ([4]; first compound 0.002 µM) | relative viability ([4]; first compound 0.006325 µM) | relative viability ([4]; first compound 0.02 µM) | relative viability ([4]; first compound 0.06325 µM) | relative viability ([4]; first compound 0.2 µM)
1 | NCI-H2126 | 0.601 | 0.805 | 0.808 | 0.796 | 0.691 | 0.548 | 0.664 | 0.522 | 0.62 | 0.557 | 0.575 | 0.57 | 0.441 | 0.528 | 0.527 | 0.904 | 0.954 | 1.06 | 1.01 | 0.879
2 | HCC-366 | 0.485 | 0.795 | 1.04 | 0.922 | 0.816 | 0.679 | 0.705 | 0.433 | 0.62 | 0.601 | 0.597 | 0.639 | 0.619 | 0.632 | 0.679 | 0.228 | 0.239 | 0.308 | 0.254 | 0.158
3 | LU99A | 0.334 | 0.267 | 0.326 | 0.292 | 0.313 | 0.528 | 0.617 | 0.428 | 0.61 | 0.646 | 1.06 | 0.836 | 0.737 | 0.988 | 1.01 | 0.356 | 0.376 | 0.371 | 0.293 | 0.178
4 | HOP-62 | 0.728 | 0.856 | 0.936 | 0.825 | 0.729 | 0.636 | 0.714 | 0.547 | 0.581 | 0.526 | 0.558 | 0.656 | 0.589 | 0.672 | 0.654 | 0.485 | 0.534 | 0.45 | 0.762 | 0.483
5 | HCC-15 | 0.592 | 0.668 | 0.76 | 0.501 | 0.203 | 0.614 | 0.591 | 0.52 | 0.674 | 0.491 | 0.498 | 0.511 | 0.389 | 0.587 | 0.5 | 1.11 | 1.13 | 1.48 | 0.903 | 0.448
6 | HARA | 0.407 | 0.533 | 0.53 | 0.487 | 0.186 | 0.279 | 0.235 | 0.174 | 0.228 | 0.238 | 0.525 | 0.52 | 0.432 | 0.45 | 0.416 | 0.272 | 0.302 | 0.582 | 0.259 | 0.128
7 | NCI-H1355 | 0.391 | 0.389 | 0.466 | 0.509 | 0.387 | 0.631 | 0.791 | 0.504 | 0.561 | 0.518 | 0.476 | 0.502 | 0.364 | 0.448 | 0.411 | 0.732 | 0.838 | 0.771 | 0.794 | 0.808
8 | NCI-H727 | 0.568 | 0.668 | 0.587 | 0.692 | 0.752 | 0.461 | 0.397 | – | 0.353 | 0.386 | 0.582 | 0.56 | – | 0.607 | 0.448 | 0.773 | 0.573 | 0.763 | 0.523 | 0.653
9 | NCI-H838 | 0.454 | 0.292 | 0.379 | 0.244 | 0.197 | 0.248 | 0.307 | 0.219 | 0.283 | 0.345 | 0.61 | 0.668 | 0.405 | 0.607 | 0.405 | 0.934 | 0.862 | 0.757 | 0.635 | 0.579
10 | LK-2 | 0.233 | 0.205 | 0.228 | 0.153 | 0.2 | 0.277 | 0.294 | – | 0.273 | 0.283 | 0.477 | 0.407 | – | 0.536 | 0.384 | 0.504 | 0.426 | 0.494 | 0.245 | 0.164
11 | HCC-827 | 0.663 | 0.756 | 0.899 | 0.764 | 0.591 | 0.31 | 0.318 | 0.357 | 0.285 | 0.177 | 0.424 | 0.393 | 0.37 | 0.352 | 0.323 | 0.192 | 0.276 | 0.26 | 0.183 | 0.164
12 | EPLC-272H | 0.268 | 0.257 | 0.343 | 0.302 | 0.265 | 0.277 | 0.293 | 0.293 | 0.271 | 0.291 | 0.302 | 0.291 | 0.308 | 0.257 | 0.265 | 0.117 | 0.206 | 0.259 | 0.176 | 0.169
13 | NCI-H358 | 0.729 | 0.751 | 0.638 | 0.191 | 0.106 | 0.167 | 0.165 | 0.13 | 0.143 | 0.173 | 0.386 | 0.327 | 0.225 | 0.338 | 0.313 | 0.55 | 0.321 | 0.539 | 0.338 | 0.266
14 | ABC-1 | 0.515 | 0.359 | 0.736 | 0.529 | 0.512 | 0.537 | 0.599 | 0.582 | 0.681 | 0.573 | 0.243 | 0.254 | 0.231 | 0.267 | 0.217 | 0.907 | 0.847 | 0.856 | 0.732 | 0.726
15 | NCI-H1395 | 0.6 | 0.641 | 0.727 | 0.675 | 0.694 | 0.417 | 0.369 | 0.375 | 0.385 | 0.366 | 0.476 | 0.421 | 0.423 | 0.445 | 0.439 | 0.387 | 0.373 | 0.421 | 0.415 | 0.38
16 | NCI-H2085 | 0.653 | 0.73 | 0.769 | 0.85 | 0.848 | 0.244 | 0.19 | 0.188 | 0.246 | 0.19 | 0.788 | 0.833 | 0.558 | 0.735 | 0.471 | 0.921 | 0.936 | 1.04 | 0.959 | 0.916
